Experimental data taken from patent publication US12655169B2, “Arabinose and preparation and use thereof” (THOMSON BIOTECH (XIAMEN) PTE. LTD., priority 2022, dated 2026).
Where two headings read alike, the source gives them in different places.

Experiments:
[1] = Flowability test (particle and powder characteristic analyzer, FT-102D); assay type: physicochemical
Description: (§1) Example 4. Particle Size Parameters and Powder Characteristics (Quantity Distribution) of L-Arabinose
Example 13. Performance Test Results for the Granules of the Present Disclosure

[2] = Particle size parameter test (BT-2900 image particle size analysis system); assay type: physicochemical; conditions: for Average particle size / D10 / D50 / D90: quantity distribution, image particle size analysis
Description: as §1

Humans = experiment: Bowel preparation in humans; assay type: in vivo
Description: Administration Sample: L-Arabinose Prepared in Example 1 Subject: weighing 73 kg Administration Regimen: The subject drank water normally on an empty stomach after getting up in the morning. At 10:06, the subject dissolved 30 g of L-arabinose in about 100-150 mL of mineral water and consumed the solution in about 5 min.

SPF mice = experiment: Bowel preparation in mice; assay type: in vivo
Description: 5.1 Experimental animals and feeding thereof: SPF (Specific pathogen free) mice, 6 weeks old; normal feed was D12450-B feed: 67.35 wt % carbohydrates, 19.2 wt % crude protein, 4.3 wt % fat. The temperature of the room was kept at 24-26° C. with humidity at 40-60%.
5.2 Experimental method and procedure:
The SPF mice were randomly divided into a blank control group, a positive control group and a treatment group, 20 mice per group, half being male and half female. Administration method: Animals in each group were fasted (water was accessible) from last 22:00 before the day of experiment, were each given ⅓ the calculated amount of drug by intragastrical administration at 7:00, 9:00 and 11:00 on the day of experiment, were each given 0.1 mL of purified water at 12:00, 13:00 and 14:00, and were dissected 3.5 h after the last administration.

[3] = Granularity distribution of sample (standard sieve); assay type: physicochemical; conditions: for Granularity distribution of sample (standard sieve) 20-80 mesh / Granularity distribution of sample (standard sieve) <80 mesh / Granularity distribution of sample (standard sieve) >20 mesh: Example 8 samples, seed crystal specification and fed-batch time varied
Description: 1 kg of L-arabinose starting material was dissolved in 1.2 kg of purified water at 60° C. After the solution was completely clear, 1 g of activated carbon ([…] of the L-arabinose) was added. The mixture was incubated at 60° C. for 30 min and then subjected to suction filtration under vacuum successively through 25 μm and 0.45 μm filter membranes to remove the activated carbon, and a clear filtered sugar liquid (about 1800 mL in volume) was obtained. About 800 mL of the clear filtered sugar liquid was added to a three-necked flask, and stirred and evaporated under reduced pressure in a water bath set at a temperature of 62° C. until the sugar degree reached 58-60% Brix. A proper amount of L-arabinose was added as seed crystals (as shown in Table 8-1 below, seed crystal with different specifications was selected: 40-60 mesh, 16.5 g; 60-80 mesh, 6 g; 80-100 mesh, 1.5 g). The mixture was stirred (double-layered type of stirring, with two-half-crescent type for the lower layer and three-bladed propeller type for the upper layer) at a rate of 90-110 rpm until the seed crystal was completely dispersed. Then the sugar liquid was added at a rate of 50-100 mL/h in a fed-batch manner for a time period of 12/18 h. After the fed-batch addition was completed, the concentrating was continued for 1-2 h. It was about 14 h from the time the seed crystal was added to the time of discharging.
According to the results shown in Table 8-1, the specific surface area of the seed crystal of 80-100 mesh is relatively […] compared with that of the seed crystal of other specifications (as shown in Table 8-2), but the particle size distribution of the sample obtained by experiment is relatively uniform: the proportion of 20-80 mesh is more than 89.7%, and the maximum proportion is more than 90%, which fully complies with the requirements of the existing pharmacopoeia (Chinese pharmacopoeia (2020)) for granules: granules cannot pass through a No. 1 sieve (10 mesh, 2000 μm) and the total quantity of granules which can pass through a No. 5 sieve (80 mesh, pore size of […]) should not exceed 15%.

[4] = listed as Example 10 sample of batch 1ª
[5] = post-centrifugation sampling-manual material spreading and drying oven drying
[6] = screw feeding-back-mixing bed drying
[7] = listed as Example 10 sample of batch 2ª

Bulk density [1]	Carr flowability index [1]	Compressibility [1]	Floodability index [1]	Flowability (Hausner ratio) [1]	Hausner ratio [1]	Tap density [1]	Average particle size [2] [μm]	D10 [2] [μm]	D50 [2] [μm]	D90 [2] [μm]	Granularity distribution of sample (standard sieve) 20-80 mesh [3]	Granularity distribution of sample (standard sieve) <80 mesh [3]	Granularity distribution of sample (standard sieve) >20 mesh [3]	Angle of repose [1]	20-80 mesh proportion of sample [3, 5] [%]	Compound	other results
0.55 g/mL	79	40.2%	75	Very poor	1.7	0.93 g/mL	75	27	63	137	–	–	–	–	–	O[C@@H]1[C@@H](O)[C@@H](O)CO[C@H]1O [Commercial product (T1)]	Angle of repose ([1]; in ° (unit assumed)): 51.05
0.5 g/mL	79	41.4%	75	Very poor	1.7	0.85 g/mL	33	11	30	63	–	–	–	–	–	O[C@@H]1[C@@H](O)[C@@H](O)CO[C@H]1O [Commercial product (Y1)]	Angle of repose ([1]; in ° (unit assumed)): 51.73
0.7 g/mL	–	17.1%	75.0	Good	1.2	0.85 g/mL	149	49	138	261	71.2%	5.4%	23.4%	–	–	O[C@@H]1[C@@H](O)[C@@H](O)OC[C@@H]1O [Example 1, β-L-(+)-arabinose]	Angle of repose ([1]; in ° (unit assumed)): 40.01; span ([2]; particle size analysis): 0.985; Stool passed, first bathroom visit (Humans; 30 g oral, at 10:42 (dose at 10:06)): loose stool; Stool passed, second bathroom visit (Humans; 30 g oral, at 11:11): watery stool; Stool passed, third bathroom visit (Humans; 30 g oral, at 11:55): watery stool with little residue; Stool passed, fourth bathroom visit (Humans; 30 g oral, at 13:27): light yellow watery stool without residue; Time from administration to first stool (Humans; one subject, 30 g oral in 100-150 mL water): About 40 min; Dosage relative to the positive control group to achieve the same effect (SPF mice; 12 g/kg vs PEG 31.5 g/kg): 38%; Residue in the rectum and colon after the dissection (SPF mice; dissected 3.5 h after the last administration, L-arabinose 12 g/kg, PEG 31.5 g/kg): no residue was left in the rectum and colon; Stools observed before the dissection (SPF mice; intragastrical, three doses, L-arabinose 12 g/kg, PEG 31.5 g/kg): Watery and loose stools
0.6	102.5	20.6	75.0	Good	1.3	0.76	189	82	182	299	61	1	38	38.95	–	O=C[C@H](O)[C@@H](O)[C@@H](O)CO [Example 2, L-arabinose]	–
0.56	99	24.3	75.0	Good	1.2	0.74	125	43	109	232	81.6	1.5	16.9	38.76	–	O=C[C@H](O)[C@@H](O)[C@@H](O)CO [Example 3, L-arabinose]	–
–	–	–	–	–	–	–	182	78	174	296	–	–	–	–	–	O=C[C@H](O)[C@@H](O)[C@@H](O)CO [Example 10 Sample of batch 1^b, L-arabinose]	–
–	–	–	–	–	–	–	189	79	168	331	–	–	–	–	–	O=C[C@H](O)[C@@H](O)[C@@H](O)CO [Example 10 Sample of batch 2^b, L-arabinose]	–
0.7	–	17.1	75.0	Good	1.2	0.85	–	–	–	–	–	–	–	40.01	93.0	O=C[C@H](O)[C@@H](O)[C@@H](O)CO [Example 10 batch 1, L-arabinose]	Average particle size [2, 4]: 134.5 μm; D10 [2, 4]: 48.4 μm; D50 [2, 4]: 125.1 μm; D90 [2, 4]: 230.6 μm; 20-80 mesh proportion of sample [3, 6]: 66.4%
0.68	102.5	15.9	75.0	Good	1.2	0.81	–	–	–	–	–	–	–	30.95	96.4	O=C[C@H](O)[C@@H](O)[C@@H](O)CO [Example 10 batch 2, L-arabinose]	Average particle size [2, 7]: 129.2 μm; D10 [2, 7]: 41.88 μm; D50 [2, 7]: 116.4 μm; D90 [2, 7]: 237.9 μm; 20-80 mesh proportion of sample [3, 6]: 79.8%
0.5	102.0	23.1	75.0	Acceptable	1.3	0.65	148.8	164.8	288.1	448.8	–	–	–	34.29	90.6	O=C[C@H](O)[C@@H](O)[C@@H](O)CO [Example 11, L-arabinose]	–
0.48	99	24.4	75.0	Good	1.3	0.64	185.5	175.1	305.2	481.8	–	–	–	39.74	93.57	O=C[C@H](O)[C@@H](O)[C@@H](O)CO [Example 12, L-arabinose]	–
–	–	–	–	–	–	–	–	–	–	–	–	–	–	–	94.3	O=C[C@H](O)[C@@H](O)[C@@H](O)CO [Example 14, L-arabinose]	20-80 mesh proportion of sample ([3]; star valve unloading-back-mixing bed drying): 89%
–	–	–	–	–	–	–	–	–	–	–	89.7%	3%	7.3%	–	–	O[C@@H]1[C@@H](O)[C@@H](O)CO[C@H]1O [No. 5]	–
